pIC50: −log10 of the molar value. Several values for one entry are separate records, joined by “and”; a condition that tells them apart may be missing. Identical values can stand only once.
System: 186277-243-T-J2-PDC complex spheroid growth
Assay: Anticancer human tumor 186277-243-T-J2-PDC patient-derived colon adenocarcinoma cell line growth inhibition [AhR]
Conditions: for viability, T/C: stronger effect = lower value
Source text: Multicellular complex tumor spheroid response to aryl hydrocarbon receptor antagonists in combination with a variety of drugs and investigational agents in selected tumor cell lines
The current study was undertaken to assess response to aryl hydrocarbon receptor antagonists in combination with standard-of-care drugs and investigational agents in solid tumor complex spheroid models. Complex spheroids include a stromal component modeled by human endothelial cells (HUVEC) and fibroblasts modeled by human mesenchymal stem cells (MSCs). The concentration ranges selected for each drug and investigational agent were based upon clinically achievable concentrations if the clinical Cmax of the agent was known.
Compounds. The drugs and investigational agents: BAY 2416964 (NSC825713), GNF351 (NSC835774), CH-223191 (NSC835775), CPI-455 (NSC825282), aza-TdCyd (NSC777586), decitabine (NSC127716), belinostat (NSC758774), entinostat (NSC756642), pevonedistat (NSC761192), tazemetostat (NSC777109), talazoparib (NSC765396), olaparib (NSC753686), selinexor (NSC780203), nedisertib (M3814, NSC802822), bortezomib (NSC756655), venetoclax (NSC766270), doxorubicin (NSC123127), elimusertib (BAY189344, NSC800525), ceralasertib (AZD6738, NSC777638), TAK-243 (NSC785004), alisertib (NSC759677), etoposide (NSC141540), topotecan (NSC609699), eribulin (NSC707389), gemcitabine (NSC613327), carboplatin (NSC241240), cisplatin (NSC119875), and SN-38 (NSC673596) were obtained from the National Cancer Institute (NCI) Developmental Therapeutics Program Chemical Repository (32). The FDA-approved anticancer drug set is available from the Developmental Therapeutics Program at https://dtp.cancer.gov/organization/dscb/obtaining/available plates.htm. […] The stock solutions were prepared in dimethyl sulfoxide (DMSO, Sigma-Aldrich, St. Louis, MO, cat. D2650), except for the platinum compounds which were prepared in saline (Quality Biological, Gaithersburg, MD, cat. 114-055-101), at 800-fold the tested concentration and stored at -70 degrees C prior to their use. All drugs and investigational agents were tested over a range starting from a high concentration at or near the clinical Cmax and decreasing in half-log increments. If the clinical Cmax for an agent had not been determined, the highest concentration tested was 10 microM (Table 1).
Cell Culture. All cells were maintained in an incubator at 37 degrees C and 5% CO2 with 95% humidity. The PDC lines were cultured according to standard operating procedures established by the NCI PDMR (https://pdmr.cancer.gov). Briefly, all PDCs were thawed and cultured in Matrigel-coated flasks prepared with a working solution of 1X Ham's F-12 nutrient mix, without supplementation (Invitrogen, Waltham, MA, cat. 11765054), 100 U/mL penicillin-streptomycin (Invitrogen, cat. 15140122), and 2.5% Matrigel (Corning Inc., Corning, NY, cat. 354248) for the first three passages. All PDCs were cultured in complete DMEM/F-12 media containing advanced DMEM/F-12 (Invitrogen, cat. 12634028), 4.9% defined fetal bovine serum, heat inactivated (HyClone Laboratories Inc., Logan, UT, cat. SH30070.03HI), 389 ng/mL hydrocortisone (Sigma-Aldrich, cat. H4001), 9.7 ng/mL human EGF recombinant protein (Invitrogen, cat. PHG0313), 23.4 microg/mL adenine (Sigma-Aldrich, cat. A2786), 97.3 U/mL penicillin-streptomycin (Invitrogen, cat. 15140122), 1.9 mM L-glutamine (Invitrogen, cat. 25030081), and 9.7 microM Y-27632 dihydrochloride (Tocris Bioscience, Bristol, United Kingdom, cat. 1254). The PDCs were cultured in complete DMEM/F12 media without 10 microM Y-27632 dihydrochloride for at least two passages prior to the screen. The established cell lines NCI-H1341 and […] were cultured in DMEM/F-12, HEPES (Invitrogen, cat. 11330032), 5% defined fetal bovine serum (HyClone Laboratories Inc., cat. SH30070.03), ITS premix universal culture supplement [insulin (5 microg/mL), transferrin (5 microg/mL), and selenious acid (5 ng/mL)] […]

[1] = curve of first compound, second compound 0.1 µM
[2] = curve of first compound, second compound 0.316 µM
[3] = curve of first compound, second compound 1 µM
[4] = curve of first compound, second compound 3.16 µM
[5] = curve of first compound, second compound 10 µM
[6] = second compound 0.1 µM, first compound 0.00949 µM
[7] = second compound 0.1 µM, first compound 0.03 µM
[8] = second compound 0.1 µM, first compound 0.0949 µM
[9] = second compound 0.1 µM, first compound 0.3 µM
[10] = second compound 0.316 µM, first compound 0.00949 µM
[11] = second compound 0.316 µM, first compound 0.03 µM
[12] = second compound 0.316 µM, first compound 0.0949 µM
[13] = second compound 0.316 µM, first compound 0.3 µM
[14] = second compound 1 µM, first compound 0.00949 µM
[15] = second compound 1 µM, first compound 0.03 µM
[16] = second compound 1 µM, first compound 0.0949 µM
[17] = second compound 1 µM, first compound 0.3 µM
[18] = second compound 3.16 µM, first compound 0.00949 µM
[19] = second compound 3.16 µM, first compound 0.03 µM
[20] = second compound 3.16 µM, first compound 0.0949 µM
[21] = second compound 3.16 µM, first compound 0.3 µM
[22] = second compound 10 µM, first compound 0.00949 µM
[23] = second compound 10 µM, first compound 0.03 µM
[24] = second compound 10 µM, first compound 0.0949 µM
[25] = second compound 10 µM, first compound 0.3 µM
[26] = second compound 0.1 µM, first compound 0.949 µM
[27] = second compound 0.1 µM, first compound 3 µM
[28] = second compound 0.316 µM, first compound 0.949 µM
[29] = second compound 0.316 µM, first compound 3 µM
[30] = second compound 1 µM, first compound 0.949 µM
[31] = second compound 1 µM, first compound 3 µM
[32] = second compound 3.16 µM, first compound 0.949 µM
[33] = second compound 3.16 µM, first compound 3 µM
[34] = second compound 10 µM, first compound 0.949 µM
[35] = second compound 10 µM, first compound 3 µM
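Note: spheroids exposed to compounds for seven days before the viability read.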
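Throughout, for viability, T/C: luminescent signal used as a stand-in for viable cell amount; 100% = DMSO vehicle control wells.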

Row | Compound | pIC50 [1] | pIC50 [2] | pIC50 [3] | pIC50 [4] | pIC50 [5] | viability, T/C [6] [%] | viability, T/C [7] [%] | viability, T/C [8] [%] | viability, T/C [9] [%] | viability, T/C [10] [%] | viability, T/C [11] [%] | viability, T/C [12] [%] | viability, T/C [13] [%] | viability, T/C [14] [%] | viability, T/C [15] [%] | viability, T/C [16] [%] | viability, T/C [17] [%] | viability, T/C [18] [%] | viability, T/C [19] [%] | viability, T/C [20] [%] | further results
1 | CCc1c2c(nc3ccc(O)cc13)-c1cc3c(c(=O)n1C2)COC(=O)[C@]3(O)CC + Cc1cncc(-c2nc(NCCc3c[nH]c4ccccc34)c3ncn(C(C)C)c3n2)c1 | 7.63 | 7.69 | 7.58 | 7.75 | > 9.02 | 66 | 46.1 | 25.2 | 11.7 | 70.9 | 44.2 | 21.7 | 11.7 | 73.5 | 48.5 | 20.2 | 11.8 | 66.8 | 43.7 | 17.3 | viability, T/C (second compound 0.1 µM, first compound 0.000949 µM): 112%; viability, T/C (second compound 0.1 µM, first compound 0.003 µM): 96%; viability, T/C (second compound 0.316 µM, first compound 0.000949 µM): 126%; viability, T/C (second compound 0.316 µM, first compound 0.003 µM): 83.1%; viability, T/C (second compound 1 µM, first compound 0.000949 µM): 123%; viability, T/C (second compound 1 µM, first compound 0.003 µM): 83.7%; viability, T/C (second compound 3.16 µM, first compound 0.000949 µM): 108%; viability, T/C (second compound 3.16 µM, first compound 0.003 µM): 75.2%; viability, T/C [21]: 9.67%; viability, T/C (second compound 10 µM, first compound 0.000949 µM): 24.6%; viability, T/C (second compound 10 µM, first compound 0.003 µM): 28.9%; viability, T/C [22]: 32%; viability, T/C [23]: 17.6%; viability, T/C [24]: 6.54%; viability, T/C [25]: 3.87%
2 | CCN(c1cc(-c2ccc(CN3CCOCC3)cc2)cc(C(=O)NCc2c(C)cc(C)[nH]c2=O)c1C)C1CCOCC1 + CC(CO)NC(=O)c1cc(-c2ccc(Cl)cc2)nn(-c2cnn(C)c2)c1=O | < 5.52 | < 5.52 | < 5.52 | < 5.52 | < 5.52 | 97.8 | 106 | 82.9 | 94.5 | 109 | 95.8 | 89.8 | 93.3 | 83.5 | 90.5 | 88.2 | 87.8 | 96.5 | 101 | 89.4 | viability, T/C [26]: 102%; viability, T/C [27]: 85.1%; viability, T/C [28]: 90.3%; viability, T/C [29]: 91.9%; viability, T/C [30]: 82.2%; viability, T/C [31]: 101%; viability, T/C [21]: 80.7%; viability, T/C [32]: 92.3%; viability, T/C [33]: 85.8%; viability, T/C [22]: 88.5%; viability, T/C [23]: 69.8%; viability, T/C [24]: 80.5%; viability, T/C [25]: 87.4%; viability, T/C [34]: 73.5%; viability, T/C [35]: 82.6%
3 | O=C(C=Cn1cnc(-c2cc(C(F)(F)F)cc(C(F)(F)F)c2)n1)NNc1cnccn1 + Cc1ccccc1N=Nc1ccc(NC(=O)c2ccnn2C)c(C)c1 | 6.31 | 6.30 | 6.27 | 6.33 | 6.37 | 98.7 | 107 | 101 | 75.4 | 94.2 | 102 | 108 | 77.7 | 92.9 | 106 | 108 | 82.6 | 96.4 | 88.4 | 106 | viability, T/C [26]: 16.8%; viability, T/C [27]: 8.98%; viability, T/C [28]: 16.9%; viability, T/C [29]: 7.87%; viability, T/C [30]: 18.7%; viability, T/C [31]: 8.79%; viability, T/C [21]: 71.7%; viability, T/C [32]: 16.4%; viability, T/C [33]: 10.3%; viability, T/C [22]: 90.2%; viability, T/C [23]: 88%; viability, T/C [24]: 83.7%; viability, T/C [25]: 63%; viability, T/C [34]: 20.5%; viability, T/C [35]: 12.7%
4 | CCN(c1cc(-c2ccc(CN3CCOCC3)cc2)cc(C(=O)NCc2c(C)cc(C)[nH]c2=O)c1C)C1CCOCC1 | – | – | – | – | – | – | – | – | – | – | – | – | – | – | – | – | – | – | – | – | viability, T/C (compound 0.00949 µM): 107% and 112% and 86.8%; viability, T/C (compound 0.03 µM): 99.7% and 104% and 85%; viability, T/C (compound 0.0949 µM): 95.2% and 112% and 74.4%; viability, T/C (compound 0.3 µM): 98.2% and 109% and 93.8%; viability, T/C (compound 0.949 µM): 101% and 112% and 91.5%; viability, T/C (compound 3 µM): 106% and 104% and 89.5%; pIC50 (curve of compound): < 5.52
5 | CCc1c2c(nc3ccc(O)cc13)-c1cc3c(c(=O)n1C2)COC(=O)[C@]3(O)CC | – | – | – | – | – | – | – | – | – | – | – | – | – | – | – | – | – | – | – | – | viability, T/C (compound 0.000949 µM): 118% and 125% and 49.3%; viability, T/C (compound 0.003 µM): 111% and 144% and 37.7%; viability, T/C (compound 0.00949 µM): 70.2% and 115% and 18.8%; viability, T/C (compound 0.03 µM): 49.7% and 83% and 17.6%; viability, T/C (compound 0.0949 µM): 29.7% and 43.6% and 10.7%; viability, T/C (compound 0.3 µM): 15.3% and 26.9% and 7.34%

— PubChem BioAssay AID1918991 (Molecular Pharmacology Branch, DTP, NCI, 2023)
